Experimental data taken from US20040097543A1, “Use of cyclic 2,4-diphosphoclycerates (cdgp) and/or derivatives thereof in cosmetic and dermatological formulations” (priority 2000, published 2004).

What was measured:
[1] = Half-life (hydrolysis); type: physicochemical; conditions: T = 120° C.
[2] = system: enzymes; experiment: Protection against thermally induced denaturation of enzymes; type: biochemical; conditions: in comparison with a number of other compatible solutes far and decidedly better
[3] = system: LDH; experiment: Stabilization when freezing protein solutions (LDH); type: biochemical
[4] = Stability properties (chemical, physical, pH, light); type: physicochemical
[5] = Solubility in water; type: physicochemical

SMILES: O=C(O)[C@H]1COP(=O)(O)OP(=O)(O)O1 [Cyclic diphosphoglycerate, cyclic diphosphoglycerate]
- half-life [1]: 150 h
- protective effect in respect of the thermally induced denaturation of enzymes [2]: excellent
- stabilizing properties when freezing protein solutions (LDH) [3]: good stabilizing properties
- chemical and physical stability [4]: High
- solubility in water [5]: Excellent
